Measured values reported in PubChem BioAssay (NCI).
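48-hour exposure; five concentrations; linearly interpolated endpoints. TGI denotes the concentration required for complete inhibition of growth.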

Assays:
Experiment in all cases: growth of human tumour cells (NCI), 48 h
SK-OV-3 ovarian = tested on: SK-OV-3 ovarian
SNB-78 CNS = tested on: SNB-78 CNS
HOP-62 NSCLC = tested on: HOP-62 NSCLC
UO-31 renal = tested on: UO-31 renal
NCI-H226 lung = tested on: NCI-H226 lung
KM20L2 colon = tested on: KM20L2 colon
XF 498 CNS = tested on: XF 498 CNS
OVCAR-4 ovarian = tested on: OVCAR-4 ovarian
TK-10 renal = tested on: TK-10 renal
MALME-3M melanoma = tested on: MALME-3M melanoma
SK-MEL-28 melanoma = tested on: SK-MEL-28 melanoma
LOX IMVI melanoma = tested on: LOX IMVI melanoma
ACHN renal = tested on: ACHN renal
IGROV1 ovarian = tested on: IGROV1 ovarian
HOP-18 NSCLC = tested on: HOP-18 NSCLC
M14 melanoma = tested on: M14 melanoma
HCT-116 colon = tested on: HCT-116 colon
SK-MEL-2 melanoma = tested on: SK-MEL-2 melanoma
CCRF-CEM leukemia = tested on: CCRF-CEM leukemia
NCI-H522 lung = tested on: NCI-H522 lung
SF-295 CNS = tested on: SF-295 CNS
M19-MEL melanoma = tested on: M19-MEL melanoma
DLD-1 colon = tested on: DLD-1 colon
UACC-62 melanoma = tested on: UACC-62 melanoma
COLO 205 colon = tested on: COLO 205 colon
RPMI-8226 leukemia = tested on: RPMI-8226 leukemia
OVCAR-3 ovarian = tested on: OVCAR-3 ovarian
SF-539 CNS = tested on: SF-539 CNS
CAKI-1 renal = tested on: CAKI-1 renal
K-562 leukemia = tested on: K-562 leukemia
SF-268 CNS = tested on: SF-268 CNS
KM12 colon = tested on: KM12 colon
SK-MEL-5 melanoma = tested on: SK-MEL-5 melanoma
DMS 114 small cell lung = tested on: DMS 114 small cell lung
HOP-92 NSCLC = tested on: HOP-92 NSCLC
OVCAR-5 ovarian = tested on: OVCAR-5 ovarian
DMS 273 small cell lung = tested on: DMS 273 small cell lung
HT29 colon = tested on: HT29 colon
MOLT-4 leukemia = tested on: MOLT-4 leukemia
SR leukemia = tested on: SR leukemia
A549 NSCLC = tested on: A549 NSCLC
NCI-H460 lung = tested on: NCI-H460 lung
786-0 renal = tested on: 786-0 renal
NCI-H23 lung = tested on: NCI-H23 lung
U251 CNS = tested on: U251 CNS
HCC-2998 colon = tested on: HCC-2998 colon
SW-620 colon = tested on: SW-620 colon
A498 renal = tested on: A498 renal
OVCAR-8 ovarian = tested on: OVCAR-8 ovarian
SNB-19 CNS = tested on: SNB-19 CNS
HL-60(TB) leukemia = tested on: HL-60(TB) leukemia
UACC-257 melanoma = tested on: UACC-257 melanoma
SNB-75 CNS = tested on: SNB-75 CNS
HCT-15 colon = tested on: HCT-15 colon
SN12C renal = tested on: SN12C renal
EKVX NSCLC = tested on: EKVX NSCLC
LXFL 529 NSCLC = tested on: LXFL 529 NSCLC
RXF 393 renal = tested on: RXF 393 renal
RXF-631 renal = tested on: RXF-631 renal

Measured: TGI

NCCSc1nc(N)c2ncn(C3OC(CO)C(O)C3O)c2n1 (stereo unspecified)
not listed: EKVX NSCLC | LXFL 529 NSCLC | RXF 393 renal | RXF-631 renal
> 100 µM: all other assays above

CN/N=C(/CC(=O)c1sc(NNC(C)=O)nc1C)C(=O)Nc1ccc(OC)cc1OC
not listed: SK-OV-3 ovarian | HOP-18 NSCLC | SNB-75 CNS | RXF 393 renal | RXF-631 renal
> 100 µM: all other assays above

COC(=O)C(C(=O)C(=O)Nc1ccc(N)cc1[N+](=O)[O-])c1nc2ccc(Cl)cc2[nH]c1=O (stereo unspecified)
not listed: NCI-H522 lung | SR leukemia | U251 CNS | LXFL 529 NSCLC | RXF-631 renal
> 100 µM: all other assays above

CCNC(CCCC(NCC)P(=O)(O)O)P(=O)(O)O (stereo unspecified)
not listed: XF 498 CNS | OVCAR-4 ovarian | MALME-3M melanoma | LOX IMVI melanoma | ACHN renal | HOP-18 NSCLC | SK-MEL-2 melanoma | DLD-1 colon | COLO 205 colon | RPMI-8226 leukemia | OVCAR-3 ovarian | SF-539 CNS | CAKI-1 renal | K-562 leukemia | SF-268 CNS | SK-MEL-5 melanoma | DMS 114 small cell lung | DMS 273 small cell lung | 786-0 renal | HCC-2998 colon | SW-620 colon | SNB-75 CNS | HCT-15 colon | SN12C renal | EKVX NSCLC | LXFL 529 NSCLC
> 100 µM: all other assays above
